Assay results published in patent US12653191B2, “Active compound combinations” (Bayer Aktiengesellschaft, priority 2020, dated 2026).
Where two headings read alike, the source gives them in different places.

Assays:
[1] = tested on: Ustilago segetum var. avenae; experiment: in vitro-Test with fungal microorganisms, Method A (tables I1-I5); type: cell-based; conditions: alone, read-out: Efficacy %
How it was run: (§1)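 Broth microdilution-type growth test in potato dextrose medium with spores or mycelium of the fungus, compound pre-dried from methanol/emulsifier. Efficacy from 620 nm extinction after 3-5 days at 20° C, scaled 0% (untreated growth) to 100% (no growth).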

[2] = tested on: Ustilago segetum var. avenae; experiment: in vitro-Test with fungal microorganisms, Method B (tables I6-I11); type: cell-based; conditions: read-out: Efficacy %
How it was run: (§2)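 Cpd in MeOH + alkylaryl-polyglycol-ether, solvent evaporated; liquid medium + fungal spores/mycelium added; OD600 read; 3–7 d, 20° C., 85% RH; growth inhibition by photometry, % efficacy vs untreated ctrl.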

[3] = tested on: Cordana musae; experiment: in vitro-Test with fungal microorganisms, Method A (tables E1-E8); type: cell-based; conditions: Neocordana musae, single substance, read-out: Efficacy %
How it was run: as §1

[4] = tested on: Alternaria alternate; experiment: in vitro-Test with fungal microorganisms, Method A (tables A1-A12); type: cell-based, Alternaria alternata; conditions: Alternaria, applied alone, read-out: Efficacy %
How it was run: as §1

[5] = tested on: Parastagonospora nodorum; experiment: in vitro-Test with fungal microorganisms, Method A (tables H1-H4); type: cell-based
Experimental: Example: In Vitro-Test with Fungal Microorganisms
Wells of 96-well microtiter plates are filled with 10 μl of a preparation of test compound or compound combination in methanol+emulsifier alkylaryl-polyglycol-ether. Thereafter, the solvent is evaporated in a hood. At the next step, 100 μl of liquid potato dextrose medium is given into each well, that has been amended with an appropriate concentration of spores or mycelium suspension of the test fungus.
With the aid of a photometer, the extinction in all wells is measured at the wavelength of 620 nm.
The microtiter plates are incubated at 20° C. and 85% relative humidity. The inhibition of growth is determined again photometrically 3-5 days after the application. Efficacy is calculated in relation to the untreated control, 0% efficacy means fungal growth as high as in untreated control while 100% efficacy means no fungal growth is measured.
The data in tables A1 to A12, B1 to B14, C1 to C10, D1 to D8, E1 to E8, F1 to F11, G1 to G4, H1 to H4 and I1 to I5 were collected according to Method A. The data in tables A13 to A22, B15 to B18, C11 to C20, E9 to E16, F12 to F15, G5 to G15, H5 to H8, I6 to I11 and J1 to J11 were collected according to Method B.

[6] = tested on: Diaporthe citri; experiment: in vitro-Test with fungal microorganisms, Method A (tables F1-F11); type: cell-based; conditions: Diaporthe citri, applied alone, read-out: Efficacy
How it was run: as §1

[7] = tested on: Cercospora beticola; experiment: in vitro-Test with fungal microorganisms, Method B (tables C11-C20); type: cell-based; conditions: Cercospora beticola, read-out: Efficacy %
How it was run: as §2

[8] = tested on: Botrytis cinerea; experiment: in vitro-Test with fungal microorganisms, Method B (tables B15-B18); type: cell-based; conditions: Botrytis cinerea, alone, read-out: Efficacy %
How it was run: as §2

[9] = tested on: Cordana musae; experiment: in vitro-Test with fungal microorganisms, Method B (tables E9-E16); type: cell-based
How it was run: as §2

[10] = tested on: Alternaria alternata; experiment: in vitro-Test with fungal microorganisms, Method B (tables A13-A22); type: cell-based; conditions: Alternaria alternata, read-out: Efficacy
How it was run: as §2

[11] = tested on: Botrytis cinerea; experiment: in vitro-Test with fungal microorganisms, Method A (tables B1-B14); type: cell-based; conditions: Botrytis cinerea
How it was run: as §1

[12] = tested on: Cercospora beticola; experiment: in vitro-Test with fungal microorganisms, Method A (tables C1-C10); type: cell-based; conditions: Cercospora beticola, read-out: Efficacy %
How it was run: as §1

[13] = tested on: Fusarium culmorum; experiment: in vitro-Test with fungal microorganisms, Method A (tables G1-G4); type: cell-based; conditions: Fusarium culmorum, read-out: Efficacy
How it was run: as §1

[14] = tested on: Colletotrichum coccodes; experiment: in vitro-Test with fungal microorganisms, Method B (tables J1-J11); type: cell-based; conditions: Colletotrichum coccodes, read-out: Efficacy %
How it was run: as §2

[15] = tested on: Parastagonospora nodorum; experiment: in vitro-Test with fungal microorganisms, Method B (tables H5-H8); type: cell-based; conditions: Parastagonospora nodorum, read-out: Efficacy
How it was run: as §2

[16] = tested on: Fusarium culmorum; experiment: in vitro-Test with fungal microorganisms, Method B (tables G5-G15); type: cell-based; conditions: Fusarium culmorum, read-out: Efficacy
How it was run: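 Read photometrically at 600 nm after 3-7 days at 20° C and 85% relative humidity, Fusarium culmorum growth inhibition is expressed against untreated control. Wells hold solvent-evaporated compound (from methanol/emulsifier) overlaid with spore- or mycelium-amended growth medium.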

[17] = tested on: Colletotrichum lindemuthianum; experiment: in vitro-Test with fungal microorganisms, Method A (tables D1-D8); type: cell-based; conditions: Colletotrichum lindemuthianum, read-out: Efficacy %
How it was run: as §1

Structure (SMILES): O=C(NCCc1ncc(C(F)(F)F)cc1Cl)c1ccccc1C(F)(F)F [(2.005) fluopyram, Fluopyram]
- inhibition of growth at 0.8 ppm ([1]; 0.8 ppm): 9%
- inhibition of growth at 4 ppm ([1]; 4.0 ppm): 10%
- inhibition of growth at 20 ppm ([1]; 20.0 ppm): 10%
- inhibition of growth at 20 ppm ([2]; 20 ppm): 20%
- inhibition of growth at 0.8 ppm ([3]; 0.8 ppm): 0%
- inhibition of growth at 4 ppm ([3]; 4.0 ppm): 1%
- inhibition of growth at 4 ppm ([4]; 4 ppm): 63%
- inhibition of growth at 20 ppm ([4]; 20 ppm): 82%
- Efficacy ([5]; 0.8 ppm): 37%
- Efficacy ([5]; 4.0 ppm): 44%
- Efficacy ([5]; 20.0 ppm): 70%
- inhibition of growth at 4 ppm ([6]; 4.0 ppm): 15%
- inhibition of growth at 0.8 ppm [7]: 31%
- inhibition of growth at 4 ppm [7]: 0%
- inhibition of growth at 20 ppm [7]: 56%
- inhibition of growth at 0.8 ppm ([7]; single compound): 11%
- inhibition of growth at 4 ppm ([7]; single compound): 0%
- inhibition of growth at 20 ppm ([7]; single compound): 7%
- inhibition of growth at 0.8 ppm ([8]; 0.8 ppm): 51%
- inhibition of growth at 4 ppm ([8]; 4 ppm): 79%
- inhibition of growth at 20 ppm ([8]; 20 ppm): 100%
- inhibition of growth at 4 ppm ([9]; Neocordana musae, single active, 4 ppm, read-out: Efficacy): 0%
- inhibition of growth at 0.8 ppm [10]: 61%
- inhibition of growth at 4 ppm [10]: 81%
- inhibition of growth at 20 ppm [10]: 88%
- inhibition of growth at 0.8 ppm ([10]; single compound): 79%
- inhibition of growth at 4 ppm ([10]; single compound): 81%
- inhibition of growth at 20 ppm ([10]; single compound): 91%
- inhibition of growth at 0.8 ppm ([11]; read-out: Efficacy): 69%
- inhibition of growth at 4 ppm ([11]; read-out: Efficacy): 72%
- inhibition of growth at 20 ppm ([11]; read-out: Efficacy): 100%
- inhibition of growth at 0.8 ppm ([11]; alone, read-out: Efficacy %): 65%
- inhibition of growth at 4 ppm ([11]; alone, read-out: Efficacy %): 75%
- inhibition of growth at 20 ppm ([11]; alone, read-out: Efficacy %): 75%
- inhibition of growth at 0.8 ppm ([12]; 0.8 ppm alone): 0%
- inhibition of growth at 4 ppm ([12]; 4.0 ppm alone): 27%
- inhibition of growth at 20 ppm ([12]; 20.0 ppm alone): 39%
- inhibition of growth at 0.8 ppm ([13]; 0.8 ppm, alone): 0%
- inhibition of growth at 4 ppm ([13]; 4.0 ppm, alone): 0%
- inhibition of growth at 20 ppm ([13]; 20.0 ppm, alone): 16%
- inhibition of growth at 0.8 ppm ([13]; Table G1, 0.8 ppm alone): 0%
- inhibition of growth at 4 ppm ([13]; Table G1, 4.0 ppm alone): 0%
- inhibition of growth at 20 ppm ([13]; Table G1, 20.0 ppm alone): 21%
- inhibition of growth at 4 ppm ([14]; 4 ppm): 14%
- inhibition of growth at 0.8 ppm ([14]; single active compound at 0.8 ppm): 0%
- inhibition of growth at 4 ppm ([14]; single active compound at 4 ppm): 0%
- inhibition of growth at 4 ppm ([15]; 4 ppm): 35%
- inhibition of growth at 20 ppm ([15]; 20 ppm): 59%
- inhibition of growth at 4 ppm ([16]; 4 ppm, alone): 21%
- inhibition of growth at 0.8 ppm ([16]; single active compound, 0.8 ppm): 20%
- inhibition of growth at 20 ppm ([16]; single active compound, 20 ppm): 37%
- inhibition of growth at 20 ppm ([17]; single active at 20.0 ppm): 23%

Structure (SMILES): CC1COC(Cn2cncn2)(c2ccc(Oc3ccc(Cl)cc3)cc2Cl)O1 (stereo not shown) [(1.002) difenoconazole, difenoconazole]
- inhibition of growth at 0.008 ppm ([1]; 0.008 ppm): 8%
- inhibition of growth at 0.04 ppm ([1]; 0.04 ppm): 14%
- inhibition of growth at 1 ppm ([1]; 1.0 ppm): 100%
- inhibition of growth at 0.008 ppm ([2]; 0.008 ppm): 2%
- inhibition of growth at 0.04 ppm ([2]; 0.04 ppm): 40%
- inhibition of growth at 0.2 ppm ([2]; 0.2 ppm): 100%
- inhibition of growth at 0.2 ppm ([3]; 0.2 ppm): 0%
- inhibition of growth at 1 ppm ([3]; 1.0 ppm): 14%
- inhibition of growth at 0.04 ppm ([4]; 0.04 ppm): 10%
- inhibition of growth at 0.2 ppm ([4]; 0.2 ppm): 28%
- inhibition of growth at 1 ppm ([4]; 1.0 ppm): 96%
- Efficacy ([5]; 0.04 ppm): 22%
- Efficacy ([5]; 0.2 ppm): 88%
- inhibition of growth at 0.04 ppm ([6]; 0.04 ppm): 0.04%
- inhibition of growth at 0.008 ppm [7]: 5%
- inhibition of growth at 0.04 ppm [7]: 60%
- inhibition of growth at 0.2 ppm [7]: 98%
- inhibition of growth at 1 ppm ([7]; 1 ppm): 99%
- inhibition of growth at 0.008 ppm ([7]; single compound): 16%
- inhibition of growth at 0.04 ppm ([7]; single compound): 51%
- inhibition of growth at 0.2 ppm ([7]; single compound): 100%
- inhibition of growth at 1 ppm ([8]; 1 ppm): 13%
- inhibition of growth at 0.04 ppm ([9]; Neocordana musae, single active, 0.04 ppm, read-out: Efficacy): 0%
- inhibition of growth at 0.2 ppm ([9]; Neocordana musae, single active, 0.2 ppm, read-out: Efficacy): 16%
- inhibition of growth at 1 ppm ([9]; Neocordana musae, single active, 1 ppm, read-out: Efficacy): 20%
- Efficacy % ([9]; single substance, 0.04 ppm): 0%
- inhibition of growth at 0.04 ppm ([10]; single compound, 0.04 ppm): 21%
- inhibition of growth at 0.2 ppm ([10]; single compound, 0.2 ppm): 53%
- inhibition of growth at 1 ppm ([10]; single compound, 1 ppm): 94%
- inhibition of growth at 0.008 ppm ([11]; alone, 0.008 ppm, read-out: Efficacy %): 8%
- inhibition of growth at 0.04 ppm ([11]; alone, 0.04 ppm, read-out: Efficacy %): 0%
- inhibition of growth at 0.2 ppm ([11]; alone, 0.2 ppm, read-out: Efficacy %): 0%
- inhibition of growth at 1 ppm ([11]; alone, 1.0 ppm, read-out: Efficacy %): 0%
- inhibition of growth at 0.008 ppm ([12]; 0.008 ppm alone): 5%
- inhibition of growth at 0.008 ppm ([12]; 0.008 ppm): 15%
- inhibition of growth at 0.04 ppm ([12]; 0.04 ppm alone): 20%
- inhibition of growth at 0.04 ppm ([12]; 0.04 ppm): 40%
- inhibition of growth at 0.2 ppm ([12]; 0.2 ppm alone): 79%
- inhibition of growth at 0.2 ppm ([12]; 0.2 ppm): 89%
- inhibition of growth at 1 ppm ([12]; 1.0 ppm alone): 99%
- inhibition of growth at 1 ppm ([12]; 1.0 ppm): 99%
- inhibition of growth at 0.2 ppm ([14]; 0.2 ppm): 0.31%
- inhibition of growth at 1 ppm ([14]; single active compound at 1 ppm): 24%
- inhibition of growth at 0.008 ppm ([15]; 0.008 ppm): 32%
- inhibition of growth at 0.04 ppm ([15]; 0.04 ppm): 100%
- inhibition of growth at 0.2 ppm ([15]; 0.2 ppm): 100%
- inhibition of growth at 0.04 ppm ([16]; 0.04 ppm, alone): 26%
- inhibition of growth at 0.008 ppm ([17]; mixing partner alone, 0.008 ppm): 0%
- inhibition of growth at 0.04 ppm ([17]; mixing partner alone, 0.04 ppm): 2%
- inhibition of growth at 0.2 ppm ([17]; mixing partner alone, 0.2 ppm): 0%
- inhibition of growth at 1 ppm ([17]; mixing partner alone, 1.0 ppm): 16%
